# Test results reported in paper PMC8558179, “The C-terminal peptide of CCL21 drastically augments CCL21 activity through the dendritic cell lymph node homing receptor CCR7 by interaction with the receptor N-terminus” (Cellular and Molecular Life Sciences: CMLS, 2021).
# Test system: CCR6
# Assay: Gαi signaling, BRET cAMP assay at CCR6 in CHO cells
# Format: cell-based
# Settings: CCL20 + 10 µM TP71-111, CHO cells, n = 3
# Description: For cAMP assays, adherent CHO cells were transfected using lipofectamine while suspension cells were transfected using the FectoPro method. Cells were seeded in a 6-well plate, either 500,000 (adherent cells) or 200,000 (suspension cells) cells/well. The next day the cells were transiently transfected with vectors encoding the human CCR7 and CAMYEL sensor (cAMP sensor using YFP-Epac-RLuc) in a 1:5 ratio using lipofectamine (6 µl/well) or FectoPro (4 µl/well). Lipofectamine transfections were terminated by changing to 2 ml fresh cultivation medium after 5 h, while Fectopro transfection was terminated after 3 h by adding 2.5 ml fresh cultivation medium and 2 µl FectoPro Boost reagent per well. The cells were incubated under standard cultivation conditions overnight. […] Emission signal from Rluc and eYFP was measured using the Envision machine at 530 and 480 nm and the BRET signal determined as the ratio between (eYFP/Rluc).
# Supplementary file 18_2021_3930_MOESM2_ESM.png: Supplementary file2 C21TP also boosts signaling of the DC expressed chemokine receptor CCR6. […] B) CCL20-induced CCR6 Gαi –signaling in CHO cells quantified using the BRET Based cAMP assay. […] Statistical significance was calculated using two-way ANOVA with Sidek’s correction for multiple test. *P<0.05, **P <0.01, ***P <0.001, ns, not significant (PNG 878 KB)
substance,measurement,setting,value
"TP71-111: free CCL21 C-terminal peptide, residues 71–111 (41 amino acids, positively charged) (PSPQKPAQGCRKDRGASKTGKKGKGSKGCKRTERSQTPKGP; UniProt O00585 94-134, looked up, fragment)",boosting of CCL20-induced signaling at CCR6,,very similar to the boosting observed with CCL19 acting at CCR7
same,boosting of CCL20-induced signaling at CCR6,listed as C21TP,also boosts CCL20 signaling via CCR6
